The values below come from PMC12358834, “Structural basis for anaerobic alkane activation by a multisubunit glycyl radical enzyme” (Proceedings of the National Academy of Sciences of the …, 2025).

Test [1] has as its target T1, MASS; (1-methylalkyl)succinate synthase; MASSα2βγ2δ complex (Azoarcus sp. HxN1, UniProt A9J4K4).
T1 construct: gene masD; full-length subunits co-expressed in E. coli NiCo21(DE3); N-terminal His tag on MASSα; asymmetric alpha2-beta-gamma2-delta complex; [4Fe-4S] in beta and gamma, single Fe in delta; with (1-methylalkyl)succinate synthase beta subunit; (1-methylalkyl)succinate synthase gamma subunit; (1-methylalkyl)succinate synthase delta subunit (rubredoxin-like)
In words: cryo-EM structure of the complex, […] Å. It is filed as binding. The following applies: active site of MASSα (αβγδ side); anaerobic; no alkane present; DTT modelled in hydrocarbon site; no glycyl radical activation described.

Test [2] concerns the target (1-methylalkyl)succinate synthase catalytic α-subunit (MASSα), protein product of masD (Azoarcus sp. strain HxN1). In words: cryo-EM structure; single-particle cryo-EM of the co-expressed, purified MASS complex (SEC fractions with dimeric MASSα), grids prepared anaerobically, 0.8 mg/mL, fumarate and DTT bound; 2.8 Å map (a first data set gave 7 Å).

T1 sequence (A9J4K4 1-839): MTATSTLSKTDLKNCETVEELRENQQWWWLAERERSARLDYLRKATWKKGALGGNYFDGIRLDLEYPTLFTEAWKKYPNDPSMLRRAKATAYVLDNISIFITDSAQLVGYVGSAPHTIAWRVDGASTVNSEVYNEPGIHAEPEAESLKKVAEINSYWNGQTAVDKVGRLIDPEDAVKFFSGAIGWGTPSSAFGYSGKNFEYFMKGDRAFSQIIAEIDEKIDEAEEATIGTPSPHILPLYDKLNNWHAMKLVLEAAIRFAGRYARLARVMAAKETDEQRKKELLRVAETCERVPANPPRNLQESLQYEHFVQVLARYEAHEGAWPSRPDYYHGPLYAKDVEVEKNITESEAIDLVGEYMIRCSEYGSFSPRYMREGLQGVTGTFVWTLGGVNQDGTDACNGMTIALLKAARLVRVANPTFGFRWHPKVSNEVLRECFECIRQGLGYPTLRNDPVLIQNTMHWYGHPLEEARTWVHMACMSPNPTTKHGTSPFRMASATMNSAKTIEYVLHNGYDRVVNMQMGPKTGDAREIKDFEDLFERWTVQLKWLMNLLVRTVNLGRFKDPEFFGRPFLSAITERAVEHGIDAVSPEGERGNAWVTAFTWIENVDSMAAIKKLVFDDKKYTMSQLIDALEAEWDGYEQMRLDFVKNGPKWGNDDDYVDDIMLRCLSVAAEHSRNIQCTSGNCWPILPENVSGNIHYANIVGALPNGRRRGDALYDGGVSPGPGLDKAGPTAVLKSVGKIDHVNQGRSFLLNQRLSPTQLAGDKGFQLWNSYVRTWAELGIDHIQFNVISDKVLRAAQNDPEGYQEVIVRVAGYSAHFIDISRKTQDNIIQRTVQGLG
T1 sequence (A9J4K2 1-61 partner): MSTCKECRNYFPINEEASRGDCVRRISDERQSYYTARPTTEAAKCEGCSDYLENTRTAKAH
T1 sequence (A9J4K0 1-120 partner): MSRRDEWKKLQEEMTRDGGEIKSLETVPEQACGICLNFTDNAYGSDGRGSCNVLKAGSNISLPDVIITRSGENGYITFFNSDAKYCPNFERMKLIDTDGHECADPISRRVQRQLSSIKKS
T1 sequence (A9J4K6 1-71 partner): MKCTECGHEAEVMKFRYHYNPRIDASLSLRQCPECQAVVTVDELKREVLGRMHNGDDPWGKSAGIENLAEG

As to `O=C(O)/C=C/C(=O)O` [fumarate], the “cryo-EM structure of the complex, 2.8 Å” value in test [1] is listed as “Density was observed for fumarate in a similar location as was observed for the fumarate”. In general, stoichiometry N refers to the number of molecules, sites or subunits per partner or assembly. In test [2], “(1-methylalkyl)succinate synthase catalytic α-subunit (MASSα), protein product of masD (enzyme)” registered a stoichiometry N of 2.
